The values that follow come from ChEMBL document CHEMBL1201862, “PubChem BioAssay data set” (2004).

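Protocol summary: plate cells (96-well), add compound at 5 concentrations, incubate 48 h, interpolate endpoints linearly. At the GI50, growth is halved.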 The source made the active and inactive calls. Cut-off read from the data, not from the text of the source: active = GI50 up to about 1.1 µM and inactive = higher.

Common to all, as to assay: NCI anticancer screen, dose series, 48 h
The subject of test [1] is DMS-114.
Test [2] concerns DMS-273.
Test [3] has as its system HOP-18.
Test [4] has as its system KM-20L2.
For test [5], the system named is M19-MEL.
Test [6] relates to RXF 631.
In test [7] the test system is SNB-78.
Test [8] has as its system MCF7.
Test [9] deals with MDA-N.

For `CC1(C)CCC[C@@]2(C)C1CCC1(C)C(CCc3ccoc3)/C(=C/OS(=O)(=O)O)CCC12` (stereo partly specified), the GI50 is 34.6 µM (inactive) in test [1]; > 100 µM (inactive) in test [2]; > 100 µM (inactive) in test [3]; 38.2 µM (inactive) in test [4]; > 100 µM (inactive) in test [5]; > 100 µM (inactive) in [6]. In [7], the GI50 is 45.2 µM (inactive).

Turning to `O=S(O)CCCSSc1ccccc1`, the GI50 is 16.8 µM (inactive) in test [1]; 30.8 µM (inactive) in test [2]; > 100 µM (inactive) in test [3]; 51.1 µM (inactive) in [4]; 39.4 µM (inactive) in test [5]; 32.7 µM (inactive) in test [7].

With `CC(=O)OCC1OC(n2cc(F)c(=O)[nH]c2=O)C(NC(=O)N(CCCl)N=O)C(OC(C)=O)C1OC(C)=O` (stereo unspecified), the GI50 in [1] was 81.3 µM (inactive); in test [2], > 100 µM (inactive); in test [3], > 100 µM (inactive); in [4], > 100 µM (inactive); in test [5], > 100 µM (inactive); in [7] it was > 100 µM (inactive).

With `Cc1nc(Nc2ccccc2)sc1C(=O)NNc1ccc([N+](=O)[O-])cc1[N+](=O)[O-]`, the GI50 is 23.3 µM (inactive) in test [1]; 25.7 µM (inactive) in test [2]; 21.5 µM (inactive) in test [3]; 24.7 µM (inactive) in [4]; 36 µM (inactive) in test [5]; 49.2 µM (inactive) in [7].

`N#CC(C#N)C(c1ccccc1)c1ccccc1`: the GI50 in test [1] was 70.8 µM (inactive); in test [2], > 100 µM (inactive); in test [3] it was > 100 µM (inactive); in test [4], > 100 µM (inactive); in [6], > 100 µM (inactive); in test [7], > 100 µM (inactive).

As to `O=C(NC(=O)c1cn(CCN(CCO)C(=O)NCCCCCCNC(=O)N(CCO)CCn2cc(C(=O)NC(=O)OCc3ccccc3)c(=O)[nH]c2=O)c(=O)[nH]c1=O)OCc1ccccc1`, the GI50 in test [1], in test [2], in [3], in test [4], in [5] and in test [6] was > 100 µM (inactive) each time. Also, in test [7], the GI50 is > 100 µM (inactive).

For `N=C(N)SCc1cccc2c(=O)cc(-c3ccccc3)oc12`, the GI50 in [1] was 6.47 µM (inactive); in [2] it was 7.14 µM (inactive); in test [4] it was 6.24 µM (inactive); in test [5], 13.2 µM (inactive); in test [8] it was 2.73 µM (inactive); in test [9], 6.53 µM (inactive). The GI50 was 9.95 µM (inactive) in test [6] and 6.32 µM (inactive) in test [7].

On to `Cc1ccc(S(=O)(=O)SCc2ccccc2CSS(=O)(=O)c2ccc(C)cc2)cc1`, for which the GI50 was 70.8 µM (inactive) in test [1]; 21.1 µM (inactive) in test [2]; > 100 µM (inactive) in [3]; 78.3 µM (inactive) in [4]; 23.5 µM (inactive) in test [5]; > 100 µM (inactive) in test [6]. Also, the GI50 in test [7] was 20.1 µM (inactive).

As to `CCOC(=O)Nc1nc2cc(Cn3cccc3)ccc2[nH]1`, the GI50 is 4.9 µM (inactive) in [1]; 3.66 µM (inactive) in test [2]; 4.52 µM (inactive) in test [3]; 3.25 µM (inactive) in test [4]; 6.37 µM (inactive) in test [5]; 1.7 µM (inactive) in test [8]. Also, the GI50 in [9] was 0.157 µM (active); in [6], > 22.3 µM (inactive); in [7], 8.99 µM (inactive).

On to `C=C(CN(C)C)C(=O)c1ccccc1`, for which the GI50 was 3.1 µM (inactive) in test [1]; 13.7 µM (inactive) in test [2]; 3.52 µM (inactive) in [3]; 19.1 µM (inactive) in test [4]; 9.33 µM (inactive) in [5]; 14.2 µM (inactive) in test [9]. Besides, the GI50 in test [6] is 24.1 µM (inactive); in test [7], 22.2 µM (inactive).

Consider `CCN(CC)C(=O)COc1ccc(Br)cc1Br`, for which the GI50 in test [1], in test [2], in [3], in test [4], in test [5] and in test [6] was > 100 µM (inactive) each time. Also, the GI50 in test [7] was > 100 µM (inactive).

`CCOc1ccc(NC(=O)C2=C(C)NC(C)=C(C(=O)Nc3ccc(OCC)cc3)C2c2ccccc2)cc1`: the GI50 is 44.2 µM (inactive) in test [1]; > 100 µM (inactive) in test [2]; 67 µM (inactive) in test [4]; > 100 µM (inactive) in test [5]; > 100 µM (inactive) in [6]; > 100 µM (inactive) in test [7].

Turning to `C=C(CN(C)C)C(=O)c1ccc(Oc2ccccc2)cc1`, the GI50 is 23.6 µM (inactive) in test [2]; 6.87 µM (inactive) in test [3]; 12.2 µM (inactive) in test [4]; 4.25 µM (inactive) in [5]; 3.3 µM (inactive) in [8]; 3.02 µM (inactive) in test [9]. For the same compound, the GI50 in test [6] is 19.3 µM (inactive); in test [7], 16.3 µM (inactive).

As to `CC(=O)c1cccc(N2COC(C)(C)c3nc4ccccc4n3C2)c1`, the GI50 in test [1], in test [2], in test [3], in test [4], in test [5] and in test [7] was > 100 µM (inactive) each time.

As to `CC(=O)C1C(c2ccc(N(C)C)cc2)c2cc3c(cc2OC1(C)O)OCO3` (stereo unspecified), the GI50 in test [1] was 33.3 µM (inactive); in [2] it was 29.4 µM (inactive); in [3] it was 68.9 µM (inactive); in test [4] it was 6.85 µM (inactive); in [5] it was 45.2 µM (inactive); in test [7], 56 µM (inactive).

As for `O=C(N/C(=C\c1ccccc1O)c1nc2ccccc2[nH]1)c1ccccc1`, the GI50 is 41.5 µM (inactive) in test [1]; 56.6 µM (inactive) in [2]; 63.5 µM (inactive) in test [3]; > 100 µM (inactive) in test [4]; > 100 µM (inactive) in test [5]; 43.5 µM (inactive) in test [7].

As for `O=C1CCC(=O)c2sccc2N1`, the GI50 in test [1], in [2], in [3], in [4], in test [5] and in test [7] was > 100 µM (inactive) each time.

Regarding `CC1(C)COC(c2cccc3c2C(=O)c2cccc(Cl)c2-3)=N1`, the GI50 was 36 µM (inactive) in test [1]; 51.4 µM (inactive) in test [2]; 39.9 µM (inactive) in [4]; 74.3 µM (inactive) in test [6]; 97.1 µM (inactive) in [7].

On to `CCOC(=O)C1=NC(c2ccccc2)(c2ccccc2)OC1=C(Cl)Cl`, for which the GI50 in [3] is > 100 µM (inactive); in test [4] it was 49.3 µM (inactive); in test [5] it was 29 µM (inactive); in test [6] it was 50.9 µM (inactive); in [7] it was 96.4 µM (inactive).

As for `COc1cccc(NC(=O)C(=O)C(C(C)=O)c2nc3ccc(Cl)cc3nc2O)c1` (stereo unspecified), the GI50 in test [1], in test [2], in [3], in test [4], in test [5] and in [6] was > 100 µM (inactive) each time. The GI50 in test [7] was > 100 µM (inactive).

Consider `COC(=O)C(C(=O)C(=O)Nc1ccc(C)cc1)c1nc2ccc([N+](=O)[O-])cc2nc1O` (stereo unspecified), for which the GI50 in [1] is 21.3 µM (inactive); in test [2], > 100 µM (inactive); in test [3], > 100 µM (inactive); in test [4], > 100 µM (inactive); in [5], > 100 µM (inactive); in [7], > 100 µM (inactive).

Turning to `Cc1cc(NCCCCCCNc2cc(C)nc3ccc(Cl)cc23)c2cc(Cl)ccc2n1`, the GI50 in test [1] was 18.9 µM (inactive); in test [2], 20.4 µM (inactive); in test [4] it was 15.8 µM (inactive); in test [5], 21.4 µM (inactive); in test [6], > 100 µM (inactive); in test [7], 22.7 µM (inactive).

Consider `N#CCc1ccc(C(C#N)/C(CCCC(=O)Nc2cccc([N+](=O)[O-])c2)=N/NC(N)=S)cc1` (stereo unspecified), for which the GI50 in [1] is 99.1 µM (inactive); in test [2], > 100 µM (inactive); in test [3] it was > 100 µM (inactive); in test [4] it was > 100 µM (inactive); in test [6] it was 86.5 µM (inactive); in test [7], 57.7 µM (inactive).

Consider `Nc1ncnc2c1nnn2C1C=C(CO)C(O)C1O` (stereo unspecified), for which the GI50 was 44.5 µM (inactive) in [1]; 44 µM (inactive) in [2]; 95.3 µM (inactive) in test [3]; 50.5 µM (inactive) in [4]; > 79.1 µM (inactive) in [5]; > 86.7 µM (inactive) in test [7].
